Series [1] in a line: Selectivity index, ratio of CC50 for Cytotoxicity against Swiss mouse peritoneal macrophages to EC50 for intracellular Leishmania infantum MHOM/MA(BE)/67 ITMAP263 amastigotes infected in Swiss mouse peritoneal macrophages. In kind it is toxicity, cell-based. The note with it: read-out: Ratio CC50/EC50.
The test system of series [2] is Leishmania infantum. Description: Antileishmanial activity against sodium stibogluconate and potassium antimonyl tartrate resistant intracellular Leishmania infantum MHOM/FR/96/LEM3323-CI4 promastigotes infected in Swiss mouse peritoneal macrophages assessed as inhibition of parasite growth measured after 96 hrs by microscopic analysis. Format: functional, organism-based. Particulars: MHOM/FR/96/LEM3323-CI4, Peritoneal macrophage.

Series [3] has as its system Leishmania infantum. Description: Antileishmanial activity against sodium stibogluconate, potassium antimonyl tartrate and PMM resistant intracellular Leishmania infantum MHOM/FR/96/LEM3323-CI4 PMM promastigotes infected in Swiss mouse peritoneal macrophages assessed as inhibition of parasite growth measured after 96 hrs by microscopic analysis. Format: functional, organism-based. Particulars: Peritoneal macrophage.

In series [4] the test system is Trypanosoma cruzi. Description: Antitrypanosomal activity against nifurtimox-sensitive Tulahuen CL2 amastigotes expressing beta galactosidase infected in human MRC5 cells assessed as inhibition of parasite growth using chlorophenol red beta-D-galactopyranoside as substrate and measured after 7 days by spectrophotometric analysis. Format: functional, organism-based. The note with it: Tulahuen CL2, MRC5, 168 h, read-out: EC50.

Series [5] in a line: Metabolic stability in golden hamster liver microsomes S9 fraction assessed as CYP450-mediated metabolism by measuring parent compound remaining measured after 60 mins in presence of NADPH. Particulars: read-out: Stability. In kind it is ADME, subcellular, Mesocricetus auratus.
A short description of series [6]: Metabolic stability in mouse liver microsomes S9 fraction assessed as UGT-mediated metabolism by measuring parent compound remaining measured after 30 mins in presence of NADPH. Format: ADME, subcellular. The note with it: read-out: Stability. (Microsomes from liver hold many membrane-bound enzymes, among them those of drug oxidation.)
Series [7] is described as follows: Metabolic stability in mouse liver microsomes S9 fraction assessed as CYP450-mediated metabolism by measuring parent compound remaining measured after 30 mins in presence of NADPH. Format: ADME, subcellular. The note with it: read-out: Stability.
The nature of series [8]: Selectivity index, ratio of CC50 for cytotoxicity against human MRC5 cells to EC50 for Trypanosoma cruzi Tulahuen CL2 amastigotes expressing beta galactosidase infected in human MRC5 cells. The note with it: read-out: Ratio CC50/EC50. In kind it is toxicity, cell-based.
The nature of series [9]: Metabolic stability in golden hamster liver microsomes S9 fraction assessed as UGT-mediated metabolism by measuring parent compound remaining measured after 60 mins in presence of NADPH. Format: ADME, subcellular, Mesocricetus auratus. Particulars: read-out: Stability.
Series [10] has as its target Cytochrome P450 (Homo sapiens, UniProt P04798+P05177+P05181+P08684+P10632+P10635+P11509+P11712+P13584+P20813+P20815+P20853+P24462+P24903+P33260+P33261+P51589+P78329+P98187+Q02928+Q08477+Q16678+Q16696+Q5TCH4+Q6VVX0+Q7Z449+Q8TAV3+Q96SQ9+Q9HB55). Description: Metabolic stability in human liver microsomes S9 fraction assessed as CYP450-mediated metabolism by measuring parent compound remaining measured after 60 mins in presence of NADPH. Particulars: read-out: Stability. In kind it is ADME, subcellular.

A short description of series [11]: Cmax in golden hamster infected with Leishmania infantum MHOM/MA(BE)/67 amastigotes at 50 mg/kg, po SID and measured after 24 hrs by LC-MS/MS analysis. Set-up: time 24 hrs, dose 50 mg/kg, route po. Particulars: in vivo. Format: ADME, organism-based, Mesocricetus auratus.
Series [12] is described as follows: Clearance in golden hamster infected with Leishmania infantum MHOM/MA(BE)/67 amastigotes at 50 mg/kg, po SID and measured after 24 hrs by LC-MS/MS analysis. Format: ADME, organism-based, Mesocricetus auratus. The note with it: in vivo.
Series [13] can be described thus: Volume of distribution in golden hamster infected with Leishmania infantum MHOM/MA(BE)/67 amastigotes at 50 mg/kg, po SID and measured after 24 hrs by LC-MS/MS analysis. Particulars: in vivo. In kind it is ADME, organism-based, Mesocricetus auratus.
Series [14] is described as follows: Tmax in golden hamster infected with Leishmania infantum MHOM/MA(BE)/67 amastigotes at 50 mg/kg, po SID and measured after 10 days by LC-MS/MS analysis. In kind it is ADME, organism-based, Mesocricetus auratus. The note with it: in vivo, time 10 day.
Series [15] is described as follows: AUC (0 to 8) in golden hamster infected with Leishmania infantum MHOM/MA(BE)/67 amastigotes at 50 mg/kg, po SID and measured after 10 days by LC-MS/MS analysis. Format: ADME, organism-based, Mesocricetus auratus. Details: dose 50 mg/kg, time 10 day, route po. Particulars: in vivo.
Series [16] is described as follows: Toxicity in golden hamster infected with Leishmania infantum MHOM/MA(BE)/67 amastigotes assessed as body weight loss at 50 mg/kg, po SID and administered for 10 days and measured twice weekly. In kind it is organism-based, Mesocricetus auratus. Particulars: in vivo, 240 h, time 10 day.

“And” between values parts separate entries of the source, which are not always exact repeats. Equal entries are not always repeated.

For the compound `Cc1ncnc2c1c(-c1cc(Cl)ccn1)cn2[C@@H]1O[C@H](CO)[C@@H](O)[C@H]1O`, the selectivity ratio in series [1] is above 94; in series [8] it was above 77. Also, the EC50 (usually the concentration giving half of the maximal effect) in series [2] is 2210 nM; in [3] it was 790 nM; in series [4], 830 nM. The remaining at 1 h was found to be 87% in series [5], 89% in [9] and 75% in series [10]. Besides, the results for the remaining at 0.5 h in series [6] and in series [7] were 102% and 86%, respectively. In series [11], the Cmax (as a rule, the maximum level reached in the sampled fluid or tissue) was 1100 ng/mL and 2.9 µM. Besides, the apparent clearance (CL/F) (usually clearance divided by bioavailability, as obtained after extravascular dosing) in series [12] amounted to 56.6 mL/min/kg. The same compound came in with a Vd in [13] of 13 L/kg. Besides, the Tmax (commonly the time from dosing to the highest level) in [14] worked out at 30 min. Also, in series [15], the AUC – broadly, the area under the concentration-time curve, a measure of exposure – at 240 h turned out to be 2840 ng·h/mL. Also, the Activity result in [16] was “Non-Toxic”.

These data come from ChEMBL document CHEMBL5120865, “Exploration of 6-methyl-7-(Hetero)Aryl-7-Deazapurine ribonucleosides as antileishmanial agents” (Eur J Med Chem, 2022).
